Test results: patent publication US20100203126A1 (priority 2007, published 2010)
Like-named read-outs stand apart in the source and are kept apart here.

What was measured:
[1] = Stability test for ubidecarenone and vitamins/minerals under co-existence, mixed 1:1; assay type: physicochemical; conditions: for effect of ingredient on stability of ubidecarenone: each ingredient singly mixed with ubidecarenone (Table 26); for % residual amount of ubidecarenone: mixed 1:1, 40±2° C., 75±5 RH %
[2] = Stability test for ubidecarenone according to content of 90% ascorbic acid; assay type: physicochemical; conditions: text summary of Table 28
Description: The results are as follows.

[3] = cited from earlier work
[4] = Stability test for ubidecarenone and vitamins/minerals under co-existence at typical formulation ratio; assay type: physicochemical; conditions: ubidecarenone 50 mg, accelerated stability test

C=C1CC[C@H](O)C/C1=C/C=C1\CCC[C@]2(C)[C@@H]([C@H](C)CCCC(C)C)CC[C@@H]12 [dried cholecalciferol]
effect of ingredient on stability of ubidecarenone [1]: excessively reduce the stability of ubidecarenone

O=C1O[C@H]([C@@H](O)CO)C(O)=C1O [ascorbic acid]
residual amount of ubidecarenone as content of ascorbic acid in sample tablet increases [2]: remarkably reduced

CC(=O)Oc1c(C)c(C)c2c(c1C)CCC(C)(CCC[C@H](C)CCC[C@H](C)CCCC(C)C)O2 (stereo partly drawn) [alpha-tocopherol acetate]
effect of ingredient on stability of ubidecarenone [1]: excessively reduce the stability of ubidecarenone

CCCCCCCCCCCCCCCC(=O)OC/C=C(C)/C=C/C=C(C)/C=C/C1=C(C)CCCC1(C)C [retinol palmitate]
effect of ingredient on stability of ubidecarenone [1]: excessively reduce the stability of ubidecarenone

COC1=C(OC)C(=O)C(C/C=C(\C)CC/C=C(\C)CC/C=C(\C)CC/C=C(\C)CC/C=C(\C)CC/C=C(\C)CC/C=C(\C)CC/C=C(\C)CC/C=C(\C)CCC=C(C)C)=C(C)C1=O [Ubidecarenone]
solubility ([3]; in alcohol): insoluble | solubility ([3]; in ether): highly soluble | solubility ([3]; in water): insoluble | residual amount of ubidecarenone, 2 weeks (%) ([4]; 2 weeks): 99.2% | residual amount of ubidecarenone, Initial (%) ([4]; initial): 100% | % residual amount of ubidecarenone ([1]; 2 weeks): 99.2% | % residual amount of ubidecarenone ([1]; initial (regarded as 100.0%)): 100%

C[N+](C)(C)CCO.O=C([O-])C(O)C(O)C(=O)O (stereo not drawn) [choline bitartrate]
effect of ingredient on stability of ubidecarenone [1]: excessively reduce the stability of ubidecarenone
